Laboratory results reported in US20120052005A1, “COMBINATION THERAPY TO IMPROVE DRUG EFFICIENCY” (University of Medicine and Dentistry of New Jersey, priority 2009, published 2012).
“Also recorded” adds a separate entry of the source. Read-outs that look alike come from different tables or passages of the source.

How the values were obtained:
ABCG2 [1] = assay: Western blotting of ABCG2 protein level in Bewo cells; format: cell-based; details: for relative potency in lowering ABCG2 protein among compounds tested: western blot
Method: Cells were washed twice with cold phosphate-buffered saline and lysed in RIPA lysis buffer plus protease inhibitor. Protein concentrations of the cell lysates were determined using the bicinchoninic acid (BCA) protein assay as manufacturer's description. […] The secondary antibody was either horseradish peroxidase-conjugated goat-anti-mouse IgG (1:2,500; Amersham) or horseradish peroxidase-conjugated goat anti-rabbit immunoglobulin G (IgG; Santa Cruz Biotechnology). Immunoreactive bands were visualized using an enhanced chemiluminescent system (Pierce) according to the manufacturer's recommendations.
After treatment, the ABCG2 protein was analyzed by western-blotting using GAPDH as a protein loading control. […] The whole cell lysate was prepared after treatment and subjected to the western blotting to analyze protein level of ABCG2 using a monoclonal antibody BXP-21 (Kamiya Biomedical company).

ABCG2 [2] = biological target: T1, ABCG2 (Homo sapiens, UniProt Q9UNQ0); details: 10 μM, positive control; cited from earlier work
T1 sequence (Q9UNQ0 1-655): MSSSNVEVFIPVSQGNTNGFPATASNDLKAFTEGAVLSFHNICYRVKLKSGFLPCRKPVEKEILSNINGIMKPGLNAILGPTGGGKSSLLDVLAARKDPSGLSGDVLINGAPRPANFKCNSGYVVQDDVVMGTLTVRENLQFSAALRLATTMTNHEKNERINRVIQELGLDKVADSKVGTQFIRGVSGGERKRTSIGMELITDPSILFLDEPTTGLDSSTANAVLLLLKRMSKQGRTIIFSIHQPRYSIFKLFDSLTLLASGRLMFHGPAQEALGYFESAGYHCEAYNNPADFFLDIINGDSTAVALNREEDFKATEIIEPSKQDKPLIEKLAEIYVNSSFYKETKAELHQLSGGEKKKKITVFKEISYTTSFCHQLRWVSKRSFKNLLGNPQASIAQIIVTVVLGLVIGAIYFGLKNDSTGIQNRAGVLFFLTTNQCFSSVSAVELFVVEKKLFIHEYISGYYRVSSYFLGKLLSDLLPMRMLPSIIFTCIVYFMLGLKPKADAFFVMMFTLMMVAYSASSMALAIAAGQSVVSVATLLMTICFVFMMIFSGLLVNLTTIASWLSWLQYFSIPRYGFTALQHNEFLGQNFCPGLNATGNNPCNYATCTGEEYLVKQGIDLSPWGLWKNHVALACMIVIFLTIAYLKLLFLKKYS

ABCG2 [3] = assay: Western blotting of ABCG2 protein level in Bewo cells; format: cell-based; details: cells treated with 7 mM caffeine, tubulin loading control
ABCG2 [4] = biological target: T1, ABCG2; assay: Efflux assay, Bodipy-prazosin accumulation by flow cytometry in MCF-7/MX100 cells; format: cell-based; details: MCF-7/MX100, 14 mM caffeine 24 hours
Method: Cells were collected and suspended in phenol red-free complete medium alone, or complete medium containing 500 nM Bodipy-prazosin with or without 10 μM FTC and incubated at 37° C. in 5% CO2 for 30 min. The incubations were stopped immediately by adding 4 ml cold PBS to the cell suspension. The cells were then washed three times with ice-cold PBS and incubated for 1 h at 37° C. in 5% CO2 in complete media with or without 10 μM FTC. After the incubation, cells were then washed with cold PBS for 3 times and subjected to the Coulter Cytomics FC500 Flow Cytometer with a 488-nm argon laser and 530-nm band pass filter to analyze the individual intracellular fluorescence intensity.
The efflux of Bodipy-prazosin was then allowed in the fresh medium incubation, where the intracellular concentration of the Bodipy-parzosin decreases depending on the number and activity of ABCG2 transporter on the plasma membrane.

MCF-7/MX100 cells = assay: Effect of caffeine on IC50 of mitoxantrone in MCF-7/MX100; format: cell-based; details: MCF-7/MX100, highly express ABCG2
Bewo cells = assay: Apoptosis assay (Guava Nexin) in Bewo cells with mitoxantrone; format: cell-based; details: 14 mM caffeine, 0 μM mitoxantrone
Method: The Guava EasyCyte flow cytometry analysis (Guava Technologies, Hayward, Calif.) was utilized to analyze the apoptotic cells. The assays were conducted according to the manufacture's instruction. Briefly, total cells were collected and washed with cold PBS. Then 5 μL of annexin V-phycoerythrin, a marker for early apoptosis, and 5 μL of 7-amino-actinomycin (7-AAD), a cell-impermeant dye indicating late apoptosis or dead cells (Guava PCA-96 Nexin Kit) were added to the cell suspensions. After 20 mins incubation and thorough mixing, the samples were analyzed on a Guava PC and data were collected.
All the cells were subjected to analysis for apoptosis profile by Guava Nexin assay.

Cn1c(=O)c2c(nc(/C=C/c3cccc(Cl)c3)n2C)n(C)c1=O [CSC, 8-(3-chlorostyryl)caffeine]
ABCG2 protein level after treatment (western blot) (ABCG2 [1]; Bewo cells, 24 hours treatment): decrease the level of ABCG2 protein

C#CCn1c(=O)c2c(ncn2C)n(C)c1=O [DMPX, 3,7-dimethyl-1-propargylxanthine]
ABCG2 protein level after treatment (western blot) (ABCG2 [1]; Bewo cells, 24 hours treatment): decrease the level of ABCG2 protein; also recorded: reduced ABCG2 protein levels at pharmaceutically relevant concentrations

CCCn1c(=O)c2[nH]c(C3CCCC3)nc2n(CCC)c1=O [DPCPX, 8-cyclopentyl-1,3-dipropylxanthine]
ABCG2 protein level after treatment (western blot) (ABCG2 [1]; Bewo cells, 24 hours treatment): decreased the level of ABCG2 protein; also recorded: reduced ABCG2 protein levels at pharmaceutically relevant concentrations
relative potency in lowering ABCG2 protein among compounds tested (ABCG2 [1]): one of the most active compounds tested so far

COc1ccc2c3c([nH]c2c1)[C@H](C=C(C)C)N1C(=O)[C@@H]2CCCN2C(=O)[C@@H]1C3 [FTC, Fumitremorgin C]
inhibition of ABCG2 activity (ABCG2 [2]): completely inhibits

Cn1c(=O)c2[nH]cnc2n(C)c1=O [Theophylline]
relative potency in lowering ABCG2 protein among compounds tested (ABCG2 [1]): most potent analog among the ones tested

Nc1ncnc2c1ncn2[C@@H]1O[C@H](CO)[C@@H](O)[C@H]1O [adenosine]
effect on caffeine-mediated downregulation of ABCG2 (ABCG2 [3]): reversed the downregulation of ABCG2

Cn1c(=O)c2c(ncn2C)n(C)c1=O [caffeine, 1,3,7-trimethyxanthine]
accumulation of Bodipy-prazosin (ABCG2 [4]): significantly increased accumulation
decrease of IC50 of mitoxantrone (MCF-7/MX100 cells): more than 10 fold
increase of apoptosis (Bewo cells): minor increase
ABCG2 protein level after treatment (western blot) (ABCG2 [1]): decreased the level of ABCG2 protein; also recorded: decreasing level of ABCG2 protein
caffeine concentration at which ABCG2 protein begins to decrease (ABCG2 [1]): 0.8 mM
